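Cultured in 96-well plates, cells were exposed to test compound for 48 hours across five concentrations. GI50 = concentration required for 50% inhibition of growth. At the TGI there is no net growth.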
These molecules were tested on HS 578T breast (assay: NCI anticancer screen, dose series, 48 h).
Molecule `C#Cc1cccc(Nc2nc3cc([N+](=O)[O-])ccc3nc2Nc2ccc(O)cc2)c1` has a GI50 of 1.89 µM and a TGI of 4.71 µM.
For `CN(C)CC(O)c1ccc(/C=C/c2ccc(Cl)cc2)cc1` (stereo not given), the GI50 was 1.49 µM and the TGI was 3.21 µM.
With `Cc1nnc2ccnn2c1C` the GI50 was > 100 µM and the TGI was > 100 µM.
With `COc1cc2c(cc1OC)-c1cc(OC)c(OC)cc1C(CN(C)C)C2` (stereo not given) the GI50 was 7.27 µM and the TGI was > 10 µM.
For `CC(C)(C)[Si](C)(C)OC1[C@@H](O[Si](C)(C)C(C)(C)C)[C@@H](CNC(=O)NC(=O)C(F)(F)F)O[C@H]1n1cnc2c(NC(=O)Nc3ccccc3)ncnc21` (stereo not given in full), the GI50 was 4.5 µM and the TGI was 17.2 µM.
With `Cc1ccc(-c2nc(N3CCNCC3)c3oc(-c4ccc(C)cc4)nc3n2)cc1` the TGI was > 24.2 µM.
With `Cc1ccc(NC2=C3CCCCC3OC2=O)cc1` (stereo not given) the GI50 was > 100 µM and the TGI was > 100 µM.
In the case of `COC1=CC(=O)C(C2(OC(C)C)OC(=O)C(Cl)=C2Cl)=CC1=O` (stereo not given), the TGI is reported as > 100 µM.
`CCC(C)SC1SCC2C(=O)N(C)C3(CC3C)C(=O)OCC(NC(=O)c3nc4ccccc4cc3O)C(=O)NC(C)C(=O)N(C)C1C(=O)N(C)C1(CC1C)C(=O)OCC(NC(=O)c1nc3ccccc3cc1O)C(=O)NC(C)C(=O)N2C` (stereo not given) gave a TGI of 0.000309 µM.
`COc1ccc(CN2C(=O)C(Cl)=C(Nc3cccc(C(F)(F)F)c3)C2=O)cc1` gave a GI50 of 3.14 µM and a TGI of 13.1 µM.
With `NC(=S)N/N=C\c1nccc2c(C(F)(F)F)cccc12` the GI50 was 1.36 µM and the TGI was > 58.8 µM.
With `CC(=O)N[C@@H](Cc1ccc(OP(=O)(O)O)cc1)C(=O)N[C@H]1CCC(=O)N2CCC[C@@H](C(=O)Nc3cccc4ccccc34)N2C1=O` the GI50 was > 25 µM and the TGI was > 25 µM.

Each molecule was assayed on IGROV1 ovarian (assay: NCI anticancer screen, dose series, 48 h).
For `C[C@@]1(O)CC[C@]2(C)C3CCCC3[C@H]12` (stereo not given in full), the TGI was > 100 µM.
With `COc1cc(-c2nn(-c3cccc(NC(=O)c4ccccc4)c3)cc2-c2ccncc2)ccc1Cl` the GI50 was 0.572 µM and the TGI was > 100 µM.
`Cc1cc(Nc2ccc(C)c(Cl)c2)n2nc(C(F)(F)F)nc2n1` was tested, and the GI50 was 26.7 µM and the TGI was > 100 µM.
Molecule `COc1ccc(Cn2c(Br)c3c(c2Br)-c2nc(N)sc2CC3)cc1` has a GI50 of 11.6 µM and a TGI of 39.2 µM.
In the case of `CC(=O)[O-].CC(=O)[O-].O=C(N/N=C/c1cc(Cl)cc(Cl)c1O)c1ccncc1.[Cu+2]`, the TGI is reported as > 100 µM.
`C#Cc1cccc(Nc2nc3cc([N+](=O)[O-])ccc3nc2Nc2ccc(O)cc2)c1` gave a GI50 of 1.78 µM and a TGI of 4.37 µM.
With `O=C(Nc1nc(=S)[nH][nH]1)C(=O)C(C(=O)c1ccc2ccccc2c1)C1OC(=O)c2ccccc21` (stereo not given) the TGI was 53.7 µM.
`CN(C)CC(O)c1ccc(/C=C/c2ccc(Cl)cc2)cc1` (stereo not given) was tested, and the GI50 was 1.21 µM and the TGI was 2.64 µM.
In the case of `Cc1nnc2ccnn2c1C`, the GI50 is reported as > 100 µM and the TGI is reported as > 100 µM.
In the case of `CCOC(=O)C1=C(C)N(NC(=O)Nc2ccccc2)C2(N)N(NC(=O)Nc3ccccc3)C(C)=C(C(=O)OCC)C12C(=O)OCC` (stereo not given), the TGI is reported as > 100 µM.
In the case of `O=C(O)CSc1n[nH]c(-c2ccccc2O)n1`, the TGI is reported as > 100 µM.
For `Cc1nc(-c2nc(C)c(C(=O)NNC(=O)C[n+]3ccccc3)s2)sc1C(=O)NNC(=O)C[n+]1ccccc1`, the TGI was > 100 µM.
`COc1cc2c(cc1OC)-c1cc(OC)c(OC)cc1C(CN(C)C)C2` (stereo not given) was tested, and the GI50 was > 10 µM and the TGI was > 10 µM.
In the case of `O=c1[nH]c(-c2ccccc2)nc2cc(Cl)ccc12`, the TGI is reported as > 100 µM.
With `Cc1ccc(S(=O)(=O)N2CCC2c2ccccc2)cc1` (stereo not given) the TGI was > 100 µM.
For `CCCOc1nc(N)c2cnn(C3CCCCO3)c2n1` (stereo not given), the TGI was > 100 µM.
With `C/C(CN1C(=O)c2ccccc2C1=O)=N\NS(=O)(=O)c1ccc(Cl)cc1` the TGI was > 100 µM.
With `CC(C)(C)[Si](C)(C)OC1[C@@H](O[Si](C)(C)C(C)(C)C)[C@@H](CNC(=O)NC(=O)C(F)(F)F)O[C@H]1n1cnc2c(NC(=O)Nc3ccccc3)ncnc21` (stereo not given in full) the GI50 was 8.32 µM and the TGI was 17.4 µM.
With `COc1ccc(/C=C/COC(C)=O)cc1OC` the TGI was > 100 µM.
`Cc1ccc(-c2nc(N3CCNCC3)c3oc(-c4ccc(C)cc4)nc3n2)cc1` showed a GI50 of 1.92 µM and a TGI of 3.81 µM.

From PubChem BioAssay (NCI)
